“And” between values parts separate entries of the source, which are not always exact repeats. Equal entries are not always repeated. Where two headings read alike, the source gives them in different places.
Columns and labels:
[1] = Dissolution studies of C21 sodium salt in buffers of different pH; assay type: physicochemical; conditions: Zwitterion formed at intermediated pHs; conclusion from experiments (A)-(E)
Experimental: 50.7 mg of C21 sodium salt (Ardena, Riga, Latvia) was added to 900 mL of 0.09M carbonate buffer (pH 8.95) at a temperature of 37±3° C. with stirring. […] After 15 minutes of stirring, 2M acetic acid solution was added dropwise to provide a pH of 4.52. Evolution CO2 was noted. […] After additional stirring for a further 1.5 hours, 1M NaOH was added to increase pH to 6.8.
51.2 mg of C21 sodium salt was added to 900 mL of acetate buffer (pH 4.4) at the same temperature with stirring. […] After stirring for 1 hour, 1M NaOH solution was added dropwise to increase the pH to 7.2.
53.2 mg of C21 sodium salt was added to 900 mL 0.1M of HCl buffer (pH 1.0) at the same temperature with stirring. […] After 20 minutes of stirring, 1M NaOH solution was added dropwise to increase the pH to 4.5.
51.0 mg of C21 sodium salt was added to 900 mL of 0.1M citrate buffer (pH 4.42) at the same temperature with stirring. The added compound formed a thin slurry. It seemed that nothing had dissolved.
50.8 mg of C21 sodium salt was added to 900 mL of an acetate buffer (pH 4.49) at the same temperature. […] After stirring for 1 hour, a 1M NaOH solution was added dropwise to increase the pH to 6.8.

[2] = Phase I clinical trial, food effect part: pharmacokinetics of C21 fed vs fasted; assay type: in vivo, human; conditions: for AUC(0-t) / AUC(0-inf) / Cmax / Vd/F / half-life / Tmax: both sexes, human, plasma; for Tmax: read-out: tmax, Median
Experimental: In addition, the effect of food on the pharmacokinetics (PK) of C21 was investigated in an open label manner in 10 male and female subjects at a single oral dose of 75 mg.
Subjects were to receive two single doses of 75 mg of C21 at least 3 days apart in a randomised fashion either in fasted or in fed state. A Food and Drug Administration (FDA)-recommended high-fat breakfast was used to investigate maximum effects.
In the food effect part of the study, the subjects' ages ranged from 22 to 44 years with a median age of 36.0 years. Most of the subjects were Caucasian (9 (90.0% of) subjects) and male (8 (80.0% of) subjects). The mean (SD) BMI of overall subjects was 23.96 (2.223) kg/m^2.
C21 sodium salt as a pre-frozen oral solution (comprising 2.5 mg/mL C21 sodium salt sodium salt dissolved in an aqueous carbonate buffer) with a composition as shown in Table 1 below.
Plasma concentrations below the lower limit of quantification (LLOQ) were presented as below the lower limit of quantification (BLQ). Plasma concentrations for C21 were summarised by study part, dose cohort and nominal time point.
Pharmacokinetic parameters were calculated by non-compartmental analysis methods from the concentration-time data using Phoenix® WinNonlin® (Version 8.0) or higher following these guidelines: • Actual sampling times relative to dosing rather than nominal times were used in the calculation of all derived pharmacokinetic parameters. • There was no imputation of missing data. • Any subjects with missing concentration data were included in the PK analysis set provided that at least Cmax and AUC(0-t) could be reliably calculated.
All BLQ values pre-dose and in the absorption phase prior to the first quantifiable concentration were substituted by zeros. Single BLQs that fell between two evaluable concentrations were substituted by missing, before the calculation of the PK variables. Consecutive BLQs that fell between evaluable concentrations were substituted by zero, before the calculation of the PK variables. Terminal BLQ values were disregarded.
Bioequivalence of PK parameters from the open label food effect arm were determined by constructing 90% confidence intervals around the estimated difference between the Test and Reference treatments using a mixed effects model based on natural log transformed data. The mixed effects model was implemented using SAS Proc Mixed, with REML estimation method and Kenward-Roger degrees of freedom algorithm.
Natural logarithm transformed AUC(0-inf) (if data permitted), AUC(0-24) and Cmax were analysed using a mixed effects model with sequence, period and treatment as fixed effects and subject within sequence as a random effect. Estimates of the mean differences (Test-Reference) and corresponding 90% confidence intervals were obtained from the model. The estimated mean differences and 90% confidence intervals for the differences were exponentiated to provide estimates of the ratio of geometric means (Test/Reference) and 90% confidence intervals for the ratios. C21 in the fasted state is the Reference treatment and C21 in the fed state is the Test treatment.
The comparisons assessing the food effect (bioequivalence) were used to assess the effect of food on the rate and extent of absorption of C21 administered under fasted and fed conditions with estimates of the mean differences as well as corresponding 90% confidence intervals being presented.
The model is a mixed analysis of variance (ANOVA) model with a fixed term for sequence, period, treatment, and a random effect for subject within sequence.

[3] = 75 mg, fed (Test) vs fasted (Reference)
[4] = 75 mg, higher for the fed treatment
[5] = single oral dose 75 mg, Fasted, N = 9
[6] = single oral dose 75 mg, Fed, N = 10

In the case of `CCCCOC(=O)NS(=O)(=O)c1sc(CC(C)C)cc1-c1ccc(Cn2ccnc2)cc1` [C21, N-butyloxycarbonyl-3-(4-imidazol-1-ylmethylphenyl)-5-iso-butylthiophene-2-sulfonamide], the “solubility of C21's Zwitterion” value [1] is reported as “insoluble”, the “AUC(0-24), Geometric Mean Ratio (Fed:Fasted)” value [2, 3] is reported as 0.45 and 0.449 and the “AUC(0-inf), Geometric Mean Ratio (Fed:Fasted)” value [2, 3] is reported as 0.45 and 0.449. For the same compound, the “Cmax, Geometric Mean Ratio (Fed:Fasted)” value [2, 3] was 0.16 and 0.155, the “CL/F, fed treatment compared to fasted treatment” value [2, 4] was “approximately 2 fold” and the “VZ/F, fed treatment compared to fasted treatment” value [2, 4] was 3 fold. The “food effect on pharmacokinetics” value ([2]; Phase I clinical trial in healthy subjects) was “a pronounced food effect was observed”, the AUC(0-t) ([2]; oral, 75 mg, Fasted (N = 9), mixed ANOVA model, read-out: AUC(0-24), Geometric Mean (95% CI), mixed effects model) was 1710 ng·h/mL and the AUC(0-inf) ([2]; oral, 75 mg, Fasted (N = 9), mixed ANOVA model, read-out: AUC(0-inf), Geometric Mean (95% CI), mixed effects model) was 1710 ng·h/mL. The Cmax ([2]; oral, 75 mg, Fasted (N = 9), mixed ANOVA model, read-out: Cmax, Geometric Mean (95% CI), mixed effects model) was 1700 ng/mL, the AUC(0-t) ([2]; oral, 75 mg, Fed (N = 10), mixed ANOVA model, read-out: AUC(0-24), Geometric Mean (95% CI), mixed effects model) was 768 ng·h/mL and the AUC(0-inf) ([2]; oral, 75 mg, Fed (N = 10), mixed ANOVA model, read-out: AUC(0-inf), Geometric Mean (95% CI), mixed effects model) was 769 ng·h/mL. It also gave a Cmax ([2]; oral, 75 mg, Fed (N = 10), mixed ANOVA model, read-out: Cmax, Geometric Mean (95% CI), mixed effects model) of 263 ng/mL, a Cmax ([2]; po, 75 mg, single oral dose 75 mg, Fasted, N = 9, plasma, read-out: Cmax, Arithmetic Mean) of 1810 ng/mL and a Cmax ([2]; po, 75 mg, single oral dose 75 mg, Fasted, N = 9, plasma, read-out: Cmax, Geometric Mean) of 1710 ng/mL. For the same compound, the AUC(0-t) ([2]; po, 75 mg, single oral dose 75 mg, Fasted, N = 9, read-out: AUC(0-6), Arithmetic Mean) was 1850 ng·h/mL, the AUC(0-t) ([2]; po, 75 mg, single oral dose 75 mg, Fasted, N = 9, read-out: AUC(0-6), Geometric Mean) was 1760 ng·h/mL and the AUC(0-t) ([2]; po, 75 mg, single oral dose 75 mg, Fasted, N = 9, read-out: AUC(0-12), Arithmetic Mean) was 1860 ng·h/mL. The AUC(0-t) ([2]; po, 75 mg, single oral dose 75 mg, Fasted, N = 9, read-out: AUC(0-12), Geometric Mean) was 1770 ng·h/mL, the AUC(0-t) ([2]; po, 75 mg, single oral dose 75 mg, Fasted, N = 9, read-out: AUC(0-24), Arithmetic Mean) was 1860 ng·h/mL and the AUC(0-inf) ([2]; po, 75 mg, single oral dose 75 mg, Fasted, N = 9, read-out: AUC(0-inf), Arithmetic Mean) was 1860 ng·h/mL. It also gave an AUC(0-inf) ([2]; po, 75 mg, single oral dose 75 mg, Fasted, N = 9, read-out: AUC(0-inf), Geometric Mean) of 1770 ng·h/mL, an AUC(0-t) ([2]; po, 75 mg, single oral dose 75 mg, Fasted, N = 9, read-out: AUC(0-t), Arithmetic Mean) of 1840 ng·h/mL and an AUC(0-t) ([2]; po, 75 mg, single oral dose 75 mg, Fasted, N = 9, read-out: AUC(0-t), Geometric Mean) of 1750 ng·h/mL. The Vd/F ([2]; po, 75 mg, single oral dose 75 mg, Fasted, N = 9, read-out: Vz/F, Arithmetic Mean) was 36.6 L, the Vd/F ([2]; po, 75 mg, single oral dose 75 mg, Fasted, N = 9, read-out: Vz/F, Geometric Mean) was 34.8 L and the half-life ([2]; po, 75 mg, single oral dose 75 mg, Fasted, N = 9, read-out: t1/2, Arithmetic Mean) was less than 60 min. The half-life ([2]; po, 75 mg, single oral dose 75 mg, Fasted, N = 9, read-out: t1/2, Geometric Mean (converted)) was 34.1 min, the Tmax ([2]; po, 75 mg, single oral dose 75 mg, Fasted, N = 9) was 40.2 min and the Cmax ([2]; po, 75 mg, single oral dose 75 mg, Fed (high-fat breakfast), N = 10, plasma, read-out: Cmax, Arithmetic Mean) was 269 ng/mL. It also gave a Cmax ([2]; po, 75 mg, single oral dose 75 mg, Fed (high-fat breakfast), N = 10, plasma, read-out: Cmax, Geometric Mean) of 263 ng/mL, an AUC(0-t) ([2]; po, 75 mg, single oral dose 75 mg, Fed, N = 10, read-out: AUC(0-6), Arithmetic Mean) of 747 ng·h/mL and an AUC(0-t) ([2]; po, 75 mg, single oral dose 75 mg, Fed, N = 10, read-out: AUC(0-6), Geometric Mean) of 732 ng·h/mL. The AUC(0-t) ([2]; po, 75 mg, single oral dose 75 mg, Fed, N = 10, read-out: AUC(0-12), Arithmetic Mean) was 790 ng·h/mL, the AUC(0-t) ([2]; po, 75 mg, single oral dose 75 mg, Fed, N = 10, read-out: AUC(0-12), Geometric Mean) was 767 ng·h/mL and the AUC(0-t) ([2]; po, 75 mg, single oral dose 75 mg, Fed, N = 10, read-out: AUC(0-24), Arithmetic Mean) was 792 ng·h/mL. The AUC(0-t) ([2]; po, 75 mg, single oral dose 75 mg, Fed, N = 10, read-out: AUC(0-24), Geometric Mean) was 768 ng·h/mL, the AUC(0-inf) ([2]; po, 75 mg, single oral dose 75 mg, Fed, N = 10, read-out: AUC(0-inf), Arithmetic Mean) was 792 ng·h/mL and the AUC(0-inf) ([2]; po, 75 mg, single oral dose 75 mg, Fed, N = 10, read-out: AUC(0-inf), Geometric Mean) was 768 ng·h/mL. The AUC(0-t) ([2]; po, 75 mg, single oral dose 75 mg, Fed, N = 10, read-out: AUC(0-t), Arithmetic Mean) was 767 ng·h/mL, the AUC(0-t) ([2]; po, 75 mg, single oral dose 75 mg, Fed, N = 10, read-out: AUC(0-t), Geometric Mean) was 742 ng·h/mL and the Vd/F ([2]; po, 75 mg, single oral dose 75 mg, Fed, N = 10, read-out: Vz/F, Arithmetic Mean) was 120 L. For the same compound, the Vd/F ([2]; po, 75 mg, single oral dose 75 mg, Fed, N = 10, read-out: Vz/F, Geometric Mean) was 118 L, the half-life ([2]; po, 75 mg, single oral dose 75 mg, Fed, N = 10, read-out: t1/2, Arithmetic Mean) was less than 60 min and the half-life ([2]; po, 75 mg, single oral dose 75 mg, Fed, N = 10, read-out: t1/2, Geometric Mean (converted)) was 50.1 min. For the same compound, the Tmax ([2]; po, 75 mg, single oral dose 75 mg, Fed, N = 10) was 75.6 min, the “% AUCex, Arithmetic Mean” value [2, 5] was 0.89% and the “CL/F, Arithmetic Mean” value [2, 5] was 44.52 L/h. For the same compound, the “CL/F, Geometric Mean” value [2, 5] was 42.44 L/h, the “Cav, Arithmetic Mean” value [2, 5] was 77.4 ng/mL and the “Cav, Geometric Mean” value [2, 5] was 73.6 ng/mL. For the same compound, the “Cmax, Geometric Mean” value ([2]; single oral dose 75 mg, Fed (high-fat breakfast), N = 10, plasma) was 263.2 ng/mL, the “% AUCex, Arithmetic Mean” value [2, 6] was 3.5% and the “AUC(0-12), Geometric Mean” value [2, 6] was 767.4 ng·h/mL. For the same compound, the “CL/F, Arithmetic Mean” value [2, 6] was 100.3 L/h, the “CL/F, Geometric Mean” value [2, 6] was 97.59 L/h and the “Cav, Arithmetic Mean” value [2, 6] was 33.0 ng/mL. For the same compound, the “Cav, Geometric Mean” value [2, 6] was 32.0 ng/mL.
